Read-outs that look alike come from different tables or passages of the source.
Columns and labels:
[1] = tested on: HT-29 cells; experiment: CellTiter-Blue HT-29 cell proliferation assay; type: cell-based; settings: Homo sapiens; HT-29, CellTiter-Blue; read-out: Cell Proliferation Inhibition IC50
Method: (§1) HT-29 cells (catalog #HTB-38) are obtained from the American Type Culture Collection (ATCC, Manassas, Va.). Briefly, cells are grown in McCoy's 5A supplemented with 10% characterized fetal bovine serum (Invitrogen, Carlsbad, Calif.), and 1% Penicillin/Streptomycin/L-Glutamine at 37 degrees Celsius, 5% CO2, and 95% humidity. Cells are allowed to expand until reaching 75-90% confluency at which point they are subcultured or harvested for assay use. A serial dilution of test compound is dispensed into a 384-well black clear bottom plate in triplicate. One thousand two-hundred fifty cells are added per well in 50 μL complete growth medium in the 384-well plate. Plates are incubated for 67 hours at 37 degrees Celsius, 5% CO2, and 95% humidity. At the end of the incubation period, 10 μL of a 440 μM solution of resazurin (Sigma, St. Louis, Mo.) in PBS is added to each well of the plate and plates are incubated for an additional 5 hours at 37 degrees Celsius, 5% CO2, and 95% humidity. Plates are read on a Synergy2 reader (Biotek, Winooski, Vt.) using an excitation of 540 nm and an emission of 600 nm. Data is analyzed using Prism software (Graphpad, San Diego, Calif.) to calculate IC50 values.
(§2) The A375, HT-29, and Colo-205 cells (ATCC) harbor a V600E mutation.

[2] = tested on: Sk-MeI-2 cells; experiment: CellTiter-Blue SK-MeI-2 cell proliferation assay; type: cell-based; settings: Homo sapiens; SK-Mel-2, CellTiter-Blue; read-out: Cell Proliferation Inhibition IC50
Method: as §1, with “Sk-MeI-2” for “HT-29”, “#HTB-68)” for “#HTB-38)”, “MEM” for “McCoy's 5A”, “Calif.), 1 mM sodium pyruvate, 0.1 mM non-essential amino acids,” for “Calif.),”, “70-95%” for “75-90%”
as §2

[3] = tested on: NCI-H1993; experiment: CellTiter-Glo proliferation and viability assay; type: cell-based; settings: Homo sapiens
[4] = tested on: BxPC-3; experiment: CellTiter-Glo proliferation and viability assay; type: cell-based; settings: Homo sapiens
[5] = tested on: DMS-53; experiment: CellTiter-Glo proliferation and viability assay; type: cell-based; settings: Homo sapiens, read-out: Abs IC50
[6] = tested on: C8166; experiment: CellTiter-Glo proliferation and viability assay; type: cell-based; settings: Homo sapiens
[7] = tested on: MIA-PaCa-2; experiment: CellTiter-Glo proliferation and viability assay; type: cell-based; settings: Homo sapiens, read-out: Abs IC50
[8] = tested on: P30-OHK; experiment: CellTiter-Glo proliferation and viability assay; type: cell-based; settings: Homo sapiens, read-out: Abs IC50
[9] = tested on: SK-HEP-1; experiment: CellTiter-Glo proliferation and viability assay; type: cell-based; settings: Homo sapiens, SK-HEP1, read-out: Abs IC50
[10] = tested on: SW620; experiment: CellTiter-Glo proliferation and viability assay; type: cell-based; settings: Homo sapiens
[11] = tested on: NCI-H2009; experiment: CellTiter-Glo proliferation and viability assay; type: cell-based; settings: Homo sapiens
[12] = tested on: NCI-H2170; experiment: CellTiter-Glo proliferation and viability assay; type: cell-based; settings: Homo sapiens
[13] = tested on: C3A; experiment: CellTiter-Glo proliferation and viability assay; type: cell-based; settings: Homo sapiens
[14] = tested on: NCI-H1573; experiment: CellTiter-Glo proliferation and viability assay; type: cell-based; settings: Homo sapiens
[15] = tested on: NCI-H2081; experiment: CellTiter-Glo proliferation and viability assay; type: cell-based; settings: Homo sapiens
[16] = tested on: NCI-H661; experiment: CellTiter-Glo proliferation and viability assay; type: cell-based; settings: Homo sapiens
[17] = tested on: A375res cells; experiment: CellTiter-Glo proliferation and viability assay in vemurafenib-resistant cells; type: cell-based, human; settings: Homo sapiens, A375res cells
[18] = tested on: A375 V600E xenograft; experiment: A375 xenograft tumor model, efficacy; type: in vivo, rat; settings: nude rats, oral twice a day 5, 10, 15, and 20 mg/kg for 21 days
Method: Briefly, 10×10^6 cells (A375) or 5×10^6 cells (HCT-116) in a 1:1 medium and matrigel mix (0.2 mL total volume) are implanted by subcutaneous injection in the hind leg of nude female rats (NIH model No. NIHRNU-M from Taconic). A total of 8 rats in each group are used for the efficacy study, and a total of 3-4 rats in each group are used for a pharmacodynamic study. The Eli Lilly and Company Animal Care and Use Committee approved all the experimental protocols. […] Tumor growth and body weight are monitored over time to evaluate activity and signs of toxicity. Bidimensional measurements of tumors are performed twice a week and tumor volumes are calculated based on mid-axis length and mid-axis width. Tumor volume data are transformed to a log scale to equalize variance across time and treatment groups. The log volume data are analyzed with a two-way repeated measures analysis of variance by time and treatment using the MIXED® procedures in SAS® software (version 8.2). The correlation model for the repeated measures is spatial power. Treated groups are compared to the control group at each time point. The MIXED® procedure is also used separately for each treatment group to calculate adjusted means and standard errors at each time point. […]

[19] = Solubility; type: physicochemical

- IC50 [1]: 7 nM
- IC50 [2]: 158 nM
- IC50 ([3]; read-out: Abs IC50): 0.17 nM
- IC50 ([3]; read-out: Rel IC50): 0.09 nM
- IC50 ([4]; read-out: Abs IC50): 0.39 nM
- IC50 ([4]; read-out: Rel IC50): 0.23 nM
- IC50 [7]: 1.09 nM
- IC50 [9]: 1.96 nM
- IC50 ([10]; SW-620, read-out: Abs IC50): 2.86 nM
- IC50 ([10]; SW-620, read-out: Rel IC50): 0.46 nM
- IC50 ([11]; read-out: Abs IC50): 11.9 nM
- IC50 ([11]; read-out: Rel IC50): 1.58 nM
- IC50 ([12]; read-out: Abs IC50): 15.1 nM
- IC50 ([12]; read-out: Rel IC50): 19.9 nM
- IC50 ([14]; read-out: Abs IC50): > 20 nM
- IC50 ([14]; read-out: Rel IC50): 0.99 nM
- IC50 ([15]; read-out: Abs IC50): > 20 nM
- IC50 ([15]; read-out: Rel IC50): > 20 nM
- IC50 ([16]; read-out: Abs IC50): > 20 nM
- IC50 ([16]; read-out: Rel IC50): 12.6 nM
- IC50 [17]: 34 nM
- solubility [19]: poor
SMILES: CNc1ncc2cc(-c3cc(NC(=O)NCCC(C)(C)C)c(F)cc3C)c(C)nc2n1 [Example 1, 1-(3,3-Dimethylbutyl)-3-(2-fluoro-4-methyl-5-(7-methyl-2-(methylamino)pyrido[2,3-d]pyrimidin-6-yl)phenyl)urea]
- IC50 [5]: 0.6 nM
- IC50 ([6]; read-out: Abs IC50): 1.09 nM
- IC50 ([6]; read-out: Rel IC50): 0.56 nM
- IC50 [8]: 1.43 nM
- IC50 ([13]; read-out: Abs IC50): > 20 nM
- IC50 ([13]; read-out: Rel IC50): 0.6 nM
- animal body weight [18]: no animal body weight loss
- tumor growth ([18]; all dose groups): tumor growth inhibition and tumor growth regression

Source: patent US8741911B2, “Raf inhibitor compounds” (Eli Lilly and Company, priority 2012, dated 2014)
